Drawing on the SangsterLogP compilation, this text covers logP for 19 compounds.

The logP is a log measure of how a compound divides between an organic and an aqueous phase. Lower therefore signals lower lipophilicity.

Assay in one data set: not given
The compound `CCSC(=O)N(CC(C)C)CC(C)C` registered a logP of 3.45. On the same count and under the same terms, the result for `CCOP(=S)(OCC)SCSC(C)(C)C` reads 3.98; that for `COP(=O)(OC)O/C(=C\Cl)c1cc(Cl)c(Cl)cc1Cl`, 3.87; that for `CCCN(CCC)C(=O)SCC`, 2.77.

Compound `Clc1ccc(C(c2ccccc2Cl)C(Cl)(Cl)Cl)cc1` (centres undefined) had a logP of 5.53. On the same count and under the same terms, the figure for `CCSC(=O)N1CCCCCC1` is 2.49; for `ClC(Cl)=C(c1ccc(Cl)cc1)c1ccccc1Cl` it is 5.45.

Turning to `CCCSC(=O)N(CCC)CCC`, the logP amounted to 3.19. The compound `Clc1ccc(C(c2ccccc2Cl)C(Cl)Cl)cc1` (centres undefined) yielded a logP of 5.34. Still for that read-out and setting: the result for `CCOP(=S)(OCC)Oc1ccc2c(C)c(Cl)c(=O)oc2c1` reads 4.01; that for `CCc1cccc(CC)c1N(COC)C(=O)CCl`, 2.95. On the same count and under the same terms, the figure for `CCSC(=O)N(CC)C1CCCCC1` is 3.25. The same measure, in the same setting: the figure for `CCCCN(CC)C(=O)SCCC` is 3.27.

The next data set is described as follows: method code RP-HPLC, from DOI: 10.1016/s0045-6535(96)00355-4.
In turn, `CC(C)N(C(=O)CCl)c1ccccc1` yielded a logP of 2.36.

`CCNc1nc(N)nc(Cl)n1` yielded a logP of 1.07.

Consider `CCC(CC)Nc1c([N+](=O)[O-])cc(C)c(C)c1[N+](=O)[O-]`, for which the logP came to 4.78. Still for that read-out and setting: the result for `OC(c1ccc(Cl)cc1)(c1ccc(Cl)cc1)C(Cl)(Cl)Cl` reads 4.93. The same measure, in the same setting: the figure for `CCNc1nc(NC(C)(C)C)nc(OC)n1` is 2.95. `CCNc1nc(NC(C)C)nc(OC)n1` gave a logP of 2.29.
